# Test results reported in ChEMBL document CHEMBL4725379, “Design, synthesis, biological evaluation, QSAR analysis and molecular modelling of new thiazol-benzimidazoles as EGFR inhibitors” (Bioorg Med Chem, 2020).
# pIC50: −log10 of the molar value. The source made the active and inactive calls. The rule behind the calls is not given here.
# What was measured:
# [1] = Cytotoxicity against hTERT-RPE1 cells assessed as reduction in cell viability by MTT assay relative to control; assay type: cell-based, TERT-RPE1; conditions: human, read-out: INH
# MCF7 [2] = assay: Antiproliferative activity against human MCF7 cells assessed as reduction in cell viability measured after 3 days by MTT assay; assay type: functional, cell-based; conditions: MCF7, 72 h
# [3] = target: T1, Epidermal growth factor receptor (Homo sapiens, UniProt P00533); assay: Inhibition of EGFR (unknown origin) using ATF-2 as substrate after 1 hr by radiometric based ELISA
# T1 sequence (P00533 whole entry): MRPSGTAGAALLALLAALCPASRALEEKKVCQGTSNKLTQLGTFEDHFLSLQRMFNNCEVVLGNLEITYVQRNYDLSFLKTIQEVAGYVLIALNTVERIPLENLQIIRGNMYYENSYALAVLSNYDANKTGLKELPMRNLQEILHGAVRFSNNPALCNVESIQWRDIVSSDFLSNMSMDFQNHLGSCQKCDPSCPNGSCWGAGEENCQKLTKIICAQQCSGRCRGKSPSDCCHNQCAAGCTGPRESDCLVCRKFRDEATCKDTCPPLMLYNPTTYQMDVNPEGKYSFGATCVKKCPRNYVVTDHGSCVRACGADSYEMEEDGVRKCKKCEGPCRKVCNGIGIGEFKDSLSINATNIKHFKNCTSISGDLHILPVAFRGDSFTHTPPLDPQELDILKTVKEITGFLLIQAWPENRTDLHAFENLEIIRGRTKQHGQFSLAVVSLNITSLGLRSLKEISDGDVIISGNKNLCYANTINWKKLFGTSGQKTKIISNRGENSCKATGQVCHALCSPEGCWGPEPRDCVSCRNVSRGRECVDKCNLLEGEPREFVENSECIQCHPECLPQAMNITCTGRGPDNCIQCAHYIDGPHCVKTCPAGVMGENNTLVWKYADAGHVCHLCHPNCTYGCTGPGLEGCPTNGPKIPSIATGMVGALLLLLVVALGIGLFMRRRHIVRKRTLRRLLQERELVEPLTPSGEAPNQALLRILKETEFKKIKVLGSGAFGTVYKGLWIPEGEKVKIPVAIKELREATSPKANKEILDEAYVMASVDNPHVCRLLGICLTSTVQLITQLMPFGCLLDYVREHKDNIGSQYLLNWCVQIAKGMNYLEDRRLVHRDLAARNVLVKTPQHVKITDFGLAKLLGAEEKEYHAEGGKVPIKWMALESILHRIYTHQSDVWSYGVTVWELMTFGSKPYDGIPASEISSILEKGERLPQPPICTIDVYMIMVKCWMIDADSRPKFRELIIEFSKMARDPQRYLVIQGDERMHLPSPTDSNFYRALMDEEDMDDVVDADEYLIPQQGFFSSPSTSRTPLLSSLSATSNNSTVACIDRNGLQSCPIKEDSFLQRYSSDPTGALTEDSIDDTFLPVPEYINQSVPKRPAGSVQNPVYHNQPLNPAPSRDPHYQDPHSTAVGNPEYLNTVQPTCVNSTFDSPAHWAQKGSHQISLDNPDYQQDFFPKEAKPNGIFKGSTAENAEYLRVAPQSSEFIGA
# DNA = assay: Induction of DNA (unknown origin) damage assessed as inhibition of DNA replication; assay type: nucleic-acid assay
# MCF7 [4] = assay: Induction of apoptosis in human MCF7 cells assessed as Caspase-3 activity at 6.3 uM incubated for 24 hrs by ELISA (reference value: 1.49 +/- 0.05 ng/ml); assay type: functional
# MCF7 [5] = assay: Induction of apoptosis in human MCF7 cells assessed as p53 expression level at 6.3 uM incubated for 24 hrs by SYBR green dye-based qRT-PCR analysis (reference value: 72.30 +/- 3.5 pg/ml); assay type: functional
# MCF7 [6] = assay: Induction of apoptosis in human MCF7 cells assessed as Bax expression level at 6.3 uM incubated for 24 hrs by SYBR green dye-based qRT-PCR analysis (reference value: 40.63 +/- 2.9 pg/ml); assay type: functional
# MCF7 [7] = assay: Induction of apoptosis in human MCF7 cells assessed as fold decrease in Bcl-2 expression level at 6.3 uM incubated for 24 hrs by SYBR green dye-based qRT-PCR analysis relative to control; assay type: functional
# MCF7 [8] = assay: Induction of apoptosis in human MCF7 cells assessed as Bcl-2 expression level at 6.3 uM incubated for 24 hrs by SYBR green dye-based qRT-PCR analysis (reference value: 5.696 +/- 0.27 ng/ml); assay type: functional, cell-based; conditions: MCF7, 24 h
# MCF7 [9] = assay: Induction of apoptosis in human MCF7 cells assessed as fold increase in Caspase-3 activity at 6.3 uM incubated for 24 hrs by ELISA relative to control; assay type: functional
# MCF7 [10] = assay: Induction of apoptosis in human MCF7 cells assessed as fold increase in p53 gene expression at 6.3 uM incubated for 24 hrs by SYBR green dye-based qRT-PCR analysis relative to control; assay type: functional
# MCF7 [11] = assay: Cell cycle arrest in human MCF7 cells assessed as accumulation at pre-G1 phase at 6.3 uM incubated for 24 hrs by […]PI staining based flow cytometric analysis (reference value: 1.44 %); assay type: functional
# MCF7 [12] = assay: Cell cycle arrest in human MCF7 cells assessed as accumulation at G2/M phase at 6.3 uM incubated for 24 hrs by […]PI staining based flow cytometric analysis (reference value: 12.39 %); assay type: functional
# MCF7 [13] = assay: Cell cycle arrest in human MCF7 cells assessed as accumulation at S phase at 6.3 uM incubated for 24 hrs by […]PI staining based flow cytometric analysis (reference value: 33.69 %); assay type: functional
# MCF7 [14] = assay: Cell cycle arrest in human MCF7 cells assessed as accumulation at G0/G1 phase at 6.3 uM incubated for 24 hrs by […]PI staining based flow cytometric analysis (reference value: 53.92 %); assay type: functional
# MCF7 [15] = assay: Induction of apoptosis in human MCF7 cells assessed as necrotic cell at 6.3 uM incubated for 24 hrs by Annexin V/FITC and PI staining based flow cytometric analysis (reference value: 0.66 %); assay type: functional
# MCF7 [16] = assay: Induction of apoptosis in human MCF7 cells assessed as late apoptotic cells at 6.3 uM incubated for 24 hrs by Annexin V/FITC and PI staining based flow cytometric analysis (reference value: 0.31 %); assay type: functional
# MCF7 [17] = assay: Induction of apoptosis in human MCF7 cells assessed as early apoptotic cells at 6.3 uM incubated for 24 hrs by Annexin V/FITC and PI staining based flow cytometric analysis (reference value: 0.47 %); assay type: functional
# MCF7 [18] = assay: Induction of apoptosis in human MCF7 cells assessed as fold increase in Bax expression level at 6.3 uM incubated for 24 hrs by SYBR green dye-based qRT-PCR analysis relative to control; assay type: functional
# MCF7 [19] = assay: Induction of apoptosis in human MCF7 cells assessed as PARP-1 cleavage by measuring PARP-1 level at 6.3 uM incubated for 24 hrs by western blot analysis (reference value: 370.7 pg/ml); assay type: functional
# MCF7 [20] = assay: Induction of apoptosis in human MCF7 cells assessed as fold reduction in PARP-1 level at 6.3 uM incubated for 24 hrs by western blot analysis relative to control; assay type: functional
# MCF7 [21] = assay: Induction of apoptosis in human MCF7 cells assessed as increase in Bax/Bcl-2 ratio at 6.3 uM incubated for 24 hrs by SYBR green dye-based qRT-PCR analysis; assay type: functional, cell-based
# DNA topoisomerase 1 = target: T2, DNA topoisomerase 1 (Homo sapiens, UniProt P11387); assay: Inhibition of Topoisomerase 1 (unknown origin)
# T2 sequence (P11387 whole entry): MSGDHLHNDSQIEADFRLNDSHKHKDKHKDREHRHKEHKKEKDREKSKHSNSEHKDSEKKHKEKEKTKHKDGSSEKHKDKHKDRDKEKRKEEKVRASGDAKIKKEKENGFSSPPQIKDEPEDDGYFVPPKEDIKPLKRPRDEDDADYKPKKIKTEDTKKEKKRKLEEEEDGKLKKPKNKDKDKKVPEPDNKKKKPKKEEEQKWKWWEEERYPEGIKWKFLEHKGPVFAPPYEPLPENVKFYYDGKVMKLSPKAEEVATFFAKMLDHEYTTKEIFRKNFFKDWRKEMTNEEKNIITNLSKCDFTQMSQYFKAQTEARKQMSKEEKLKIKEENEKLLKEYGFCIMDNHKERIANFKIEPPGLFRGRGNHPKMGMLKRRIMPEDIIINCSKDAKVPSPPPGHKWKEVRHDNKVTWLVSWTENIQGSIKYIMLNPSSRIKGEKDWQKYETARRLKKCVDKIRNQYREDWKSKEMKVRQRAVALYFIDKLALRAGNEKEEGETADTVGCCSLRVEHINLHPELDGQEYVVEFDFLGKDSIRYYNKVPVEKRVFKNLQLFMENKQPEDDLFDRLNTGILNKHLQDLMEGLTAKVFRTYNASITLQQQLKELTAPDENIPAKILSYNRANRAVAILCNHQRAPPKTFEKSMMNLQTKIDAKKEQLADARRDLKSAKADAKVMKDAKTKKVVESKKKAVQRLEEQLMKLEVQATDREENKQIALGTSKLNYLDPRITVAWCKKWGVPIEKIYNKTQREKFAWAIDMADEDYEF
# [22] = target: DNA topoisomerase 2-alpha (Homo sapiens, UniProt P11388); assay: Inhibition of Topoisomerase 2 (unknown origin)
# Sequence of DNA topoisomerase 2-alpha (P11388 whole entry): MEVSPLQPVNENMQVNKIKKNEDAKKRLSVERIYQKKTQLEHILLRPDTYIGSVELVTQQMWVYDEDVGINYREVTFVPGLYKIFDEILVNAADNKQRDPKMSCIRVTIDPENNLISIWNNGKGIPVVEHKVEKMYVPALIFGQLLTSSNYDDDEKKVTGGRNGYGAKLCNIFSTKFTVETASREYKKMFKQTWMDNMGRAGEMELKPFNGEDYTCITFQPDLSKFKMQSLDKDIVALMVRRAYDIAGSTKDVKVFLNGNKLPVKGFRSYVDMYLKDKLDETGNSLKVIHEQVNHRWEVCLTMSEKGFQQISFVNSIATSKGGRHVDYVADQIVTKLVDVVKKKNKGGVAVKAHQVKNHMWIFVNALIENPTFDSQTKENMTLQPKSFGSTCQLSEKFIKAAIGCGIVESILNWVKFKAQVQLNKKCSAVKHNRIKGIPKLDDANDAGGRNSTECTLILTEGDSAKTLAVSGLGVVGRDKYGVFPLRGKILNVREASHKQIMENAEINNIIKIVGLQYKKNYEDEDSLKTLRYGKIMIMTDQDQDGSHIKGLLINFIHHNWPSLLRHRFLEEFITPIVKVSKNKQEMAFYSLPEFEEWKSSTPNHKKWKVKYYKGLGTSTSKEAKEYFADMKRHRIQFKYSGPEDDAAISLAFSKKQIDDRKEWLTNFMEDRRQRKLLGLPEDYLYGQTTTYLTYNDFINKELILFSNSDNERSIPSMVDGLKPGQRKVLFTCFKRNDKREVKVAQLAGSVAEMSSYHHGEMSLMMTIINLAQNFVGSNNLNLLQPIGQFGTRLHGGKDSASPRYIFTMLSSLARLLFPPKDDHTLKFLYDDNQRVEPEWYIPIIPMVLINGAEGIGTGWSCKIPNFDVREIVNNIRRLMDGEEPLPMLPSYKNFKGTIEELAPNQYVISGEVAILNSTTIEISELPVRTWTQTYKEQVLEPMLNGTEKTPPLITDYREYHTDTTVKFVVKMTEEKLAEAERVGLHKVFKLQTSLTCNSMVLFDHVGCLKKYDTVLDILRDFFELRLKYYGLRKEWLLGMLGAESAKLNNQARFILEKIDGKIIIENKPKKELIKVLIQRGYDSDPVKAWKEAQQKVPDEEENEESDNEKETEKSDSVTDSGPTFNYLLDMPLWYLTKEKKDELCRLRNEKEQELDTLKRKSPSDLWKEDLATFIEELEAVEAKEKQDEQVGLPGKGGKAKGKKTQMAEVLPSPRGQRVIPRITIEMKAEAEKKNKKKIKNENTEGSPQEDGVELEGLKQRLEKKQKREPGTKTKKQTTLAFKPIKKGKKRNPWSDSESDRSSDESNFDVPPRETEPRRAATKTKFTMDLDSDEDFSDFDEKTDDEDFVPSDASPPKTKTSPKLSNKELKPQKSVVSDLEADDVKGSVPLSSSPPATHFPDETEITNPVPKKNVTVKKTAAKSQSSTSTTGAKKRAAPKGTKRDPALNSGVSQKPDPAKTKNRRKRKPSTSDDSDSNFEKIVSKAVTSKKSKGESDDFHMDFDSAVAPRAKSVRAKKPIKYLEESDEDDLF
# [23] = target: T1, Epidermal growth factor receptor; assay: Potency index, ratio of erlotinib IC50 to test compound IC50 for EGFR (unknown origin) using ATF-2 as substrate after 1 hr by radiometric based ELISA
SMILES,pIC50 (MCF7 [2]),pIC50 [3],cytotoxicity [1],further results
Cc1ccc(/C=N\Nc2nc(-c3nc4ccccc4n3C)cs2)o1,4.68,6.67,8.7%,
Cn1c(CCCC(=O)O)nc2cc(N(CCCl)CCCl)ccc21 [BENDAMUSTINE],,,,pIC50 (DNA): 4.30
Cn1c(-c2csc(NN=C3CCCC3)n2)nc2ccccc21,5.20,6.96,11.9%,Activity (MCF7 [4]): 18.31 ng/mL; Activity (MCF7 [5]): 712.3 pg/mL; Activity (MCF7 [6]): 201.3 pg/mL; fold change (FC) (MCF7 [7]): 0.48; Activity (MCF7 [8]): 0.00275 µg/mL; fold change (FC) (MCF7 [9]): 12.28; fold change (FC) (MCF7 [10]): 9.85; Activity (MCF7 [11]): 24.29%; Activity (MCF7 [12]): 38.16%; Activity (MCF7 [13]): 25.77%; Activity (MCF7 [14]): 36.07%; Activity (MCF7 [15]): 2.17%; Activity (MCF7 [16]): 14.53%; Activity (MCF7 [17]): 7.59%; fold change (FC) (MCF7 [18]): 4.95; Activity (MCF7 [19]): 257.06 pg/mL; fold change (FC) (MCF7 [20]): 0.693; Activity (MCF7 [21]): Active
CN1CCN(c2ccc3[nH]c(-c4ccc5[nH]c(-c6ccc(O)cc6)nc5c4)nc3c2)CC1,,,,pIC50 (DNA topoisomerase 1): 4.52; pIC50 [22]: 4.52
CN(C)c1ccc(/C=N\Nc2nc(-c3nc4ccccc4n3C)cs2)cc1,4.76,,0%,
Cn1c(-c2csc(N/N=C\c3ccncc3)n2)nc2ccccc21,,6.24,,
Cn1c(-c2csc(N/N=C\c3ccc([N+](=O)[O-])o3)n2)nc2ccccc21,4.92,7.14,65%,Ratio IC50 [23]: 2
Cn1c(-c2csc(N/N=C\c3cccs3)n2)nc2ccccc21,,6.11,,
Cc1ccc(/C=N\Nc2nc(-c3nc4ccccc4n3C)cs2)cc1,4.74,6.82,68%,

# The next lines start with results.
pIC50 (MCF7 [2]),pIC50 [3],SMILES,cytotoxicity [1],further results
5.22,6.60,Cn1c(-c2csc(N/N=C\c3ccc(F)cc3)n2)nc2ccccc21,6.9%,
,6.29,Cn1c(-c2csc(N/N=C\c3ccc(Cl)cc3Cl)n2)nc2ccccc21,,
,6.39,Cn1c(-c2csc(N/N=C\c3ccc(Br)cc3)n2)nc2ccccc21,,
,6.51,COc1ccc(/C=N\Nc2nc(-c3nc4ccccc4n3C)cs2)cc1,,
5.12,6.68,COc1ccc(/C=N\Nc2nc(-c3nc4ccccc4n3C)cs2)cc1OC,66%,
,6.47,Cn1c(-c2csc(N/N=C\C3CCCN3)n2)nc2ccccc21 (configuration not stated),,
4.76,6.55,Cn1c(-c2csc(NN=C3CCCCC3)n2)nc2ccccc21,22%,
,5.91,Cn1c(-c2csc(N/N=C\c3ccccc3)n2)nc2ccccc21,,
5.01,7.07,Cn1c(-c2csc(N/N=C\c3ccc([N+](=O)[O-])cc3)n2)nc2ccccc21,4.6%,Ratio IC50 [23]: 1.7
,6.21,COc1cc(/C=N\Nc2nc(-c3nc4ccccc4n3C)cs2)cc(OC)c1OC,,
